In US20250066349A1 (Prothena Biosciences Limited, priority 2021, published 2025):

Target: T1, DYRK1A (Homo sapiens (Human), UniProt Q13627)
Assay: DYRK1A Inhibition Assay
Format: biochemical
Conditions: Compounds of Formula (I); DYRK1A 1 nM, ATP 20 μM, Ser/Thr 18 peptide 2 μM, 90 minutes; read-out: DYRK1 IC50
Protocol: DYRK1A—Invitrogen #PV4105
• Ser/Thr 18 peptide—Invitrogen #PR8227U • Phos-Ser/Thr 18 peptide—Invitrogen #PR8229U • Assay plate—PerkinElmer #6007279 • ATP—Sigma #A7699-5G • Development reagent A—Invitrogen #PR5194B • Development buffer—Invitrogen #PR4876B Compound preparation • 1. Test compounds were diluted to 1 mM in DMSO • 2. Stock was further diluted 3-fold using Echo platform • 3. 100 nL of DMSO into Columns 1 and 24 and 100 nL of compounds dilutions to Columns 2-23 in a plate.
• 1. Add 5 μL enzyme & substrate mixture to each well in Column 2-23 and A24-H24 wells of the 384-well assay plate; • 2. Add 5 μL 0% Phosphorylation control to A1-H1 and I24-P24 wells of the assay plate; • 3. Add 5 μL 100% Phosphorylation control to I1-P1 wells of the assay plate; • 4. Spin the assay plate (1000 rpm, 1 minute @23° C.); • 5. Incubate enzyme with compounds for 15 minutes at 23° C.; • 6. Add 5 μL ATP solution to each well of the assay plate; • 7. Spin the plate (1000 rpm, 1 minute @23° C.); • 8. Incubate the assay plate for 90 minutes at 23° C.; • 9. Add 10 μL Development reagent A to each well of the assay plate; • 10. Centrifuge the plate at 1000 rpm about 15 seconds and seal a film over assay plate. Incubate the assay plate for 30 minutes at 23° C. • 11. Read assay plates on Envision (see Tables A-D).
Final Compound Concentrations
• Assay buffer: 50 mM Hepes pH7.5, 10 mM MgCl2, 1 mM EDTA, 0.01% Brij-35 • DYRK1A: 1 nM • ATP: 20 μM • Ser/Thr 18 peptide: 2 μM • Reaction time: 90 minutes
In the case of `O=C1Cc2c(ncc3cc(-c4cnco4)ccc23)N1` [Compound 83], the IC50 is reported as 100 to 1000 nM. Molecule `C(#CC1CCOCC1)c1ncc(-c2ccc3cnc4[nH]ccc4c3c2)s1` [Compound 59] has an IC50 of at most 10 nM. `O=c1[nH]c2ncc3ccc(-c4cccnc4)cc3c2n1Cc1cccnc1` [Compound 11, 8-(pyridin-3-yl)-1-(pyridin-3-ylmethyl)-1,3-dihydro-2H-imidazo[4,5-c]isoquinolin-2-one] showed an IC50 of 100 to 1000 nM. With `Cn1cc(-c2ccc3cnc4nc(C5CCOCC5)sc4c3c2)cn1` [Compound 81, 8-(1-methyl-1H-pyrazol-4-yl)-2-(tetrahydro-2H-pyran-4-yl)thiazolo[4,5-c]isoquinoline] the IC50 was 100 to 1000 nM. `Cn1cc(-c2ccc3cnc4cc(C5CCOCC5)sc4c3c2)cn1` [Compound 72] showed an IC50 of at most 10 nM. Work on `Cn1c(=O)[nH]c2ncc(-c3ccc4cnsc4c3)cc21` [Compound 30, 6-(benzo[d]isothiazol-6-yl)-1-methyl-1,3-dihydro-2H-imidazo[4,5-b]pyridin-2-one] yielded an IC50 of 100 to 1000 nM. For `Cc1ncc(-c2ccc3cnc4cc(C5CCOCC5)sc4c3c2)s1` [Compound 79, 8-(2-methylthiazol-5-yl)-2-(tetrahydro-2H-pyran-4-yl)thieno[3,2-c]isoquinoline], the IC50 was 10 to 100 nM. In the case of `Cc1[nH]c2ncc3ccncc3c2c1-c1cccc(C(=O)O)c1` [Compound 95, 3-(8-methyl-7H-pyrrolo[2,3-c][2,6]naphthyridin-9-yl)benzoic acid], the IC50 is reported as 100 to 1000 nM. `O=C(O)C1CC(c2c[nH]c3ncc4ncccc4c23)C1` (stereo not drawn) [Compound 34, 3-(3H-pyrrolo[3,2-f][1,7]naphthyridin-1-yl)cyclobutane-1-carboxylic acid] showed an IC50 of 100 to 1000 nM. `Cc1c[nH]c2ncc3ccc(-c4cnc(C#CC5CCOCC5)s4)cc3c12` [Compound 63] showed an IC50 of at most 10 nM. `c1nc2c(ncc3ccc(-c4cncs4)cc32)[nH]1` [Compound 77] showed an IC50 of at most 10 nM. `c1ncc(-c2ccc3cnc4cc(C5CCOCC5)sc4c3c2)o1` [Compound 73, 5-(2-(tetrahydro-2H-pyran-4-yl)thieno[3,2-c]isoquinolin-8-yl)oxazole] gave an IC50 of 10 to 100 nM. `c1ncc(-c2ccc3cnc4cc(C5CCOCC5)sc4c3c2)s1` [Compound 78, 2-(tetrahydro-2H-pyran-4-yl)-8-(thiazol-5-yl)thieno[3,2-c]isoquinoline] showed an IC50 of at most 10 nM. With `Cn1cc(-c2ccc3cnc4[nH]ncc4c3c2)cn1` [Compound 7, 8-(1-methyl-1H-pyrazol-4-yl)-3H-pyrazolo[3,4-c]isoquinoline] the IC50 was 10 to 100 nM. Molecule `Cc1c(C2CCN(CC(F)F)CC2)[nH]c2ncc3ccc(-c4cnn(C)c4)cc3c12` [Compound 55, 2-(1-(2,2-difluoroethyl)piperidin-4-yl)-1-methyl-8-(1-methyl-1H-pyrazol-4-yl)-3H-pyrrolo[2,3-c]isoquinoline] has an IC50 of at most 10 nM. For `CN1CCC(C#Cc2ncc(-c3ccc4cnc5[nH]ccc5c4c3)s2)CC1` [Compound 61, 2-((1-methylpiperidin-4-yl)ethynyl)-5-(3H-pyrrolo[2,3-c]isoquinolin-8-yl)thiazole], the IC50 was at most 10 nM. `CN1CCN(c2nccc3c2cnc2[nH]cc(-c4ccncc4)c23)CC1` [Compound 43, 6-(4-methylpiperazin-1-yl)-1-(pyridin-4-yl)-3H-pyrrolo[2,3-c][2, 7]naphthyridine] gave an IC50 of 10 to 100 nM. In the case of `Cn1cc(-c2ccc3c4c(ncc3c2)NC(=O)C4)cn1` [Compound 84, 7-(1-methyl-1H-pyrazol-4-yl)-1,3-dihydro-2H-pyrrolo[2,3-c]isoquinolin-2-one], the IC50 is reported as over 1000 nM. Work on `OCc1ccc2c(cnc3[nH]cc(-c4ccc(F)cc4)c32)c1` [Compound 5] yielded an IC50 of 10 to 100 nM. With `O=C(O)[C@H]1C[C@H](c2c[nH]c3ncc4cccnc4c32)C1` [Compound 37, (1r,3r)-3-(7H-pyrrolo[2,3-h][1,6]naphthyridin-9-yl)cyclobutane-1-carboxylic acid] the IC50 was 10 to 100 nM. In the case of `Cc1c(C2CCN(C)CC2)[nH]c2ncc3ccc(-c4cnn(C)c4)cc3c12` [Compound 42, 1-methyl-8-(1-methyl-1H-pyrazol-4-yl)-2-(1-methylpiperidin-4-yl)-3H-pyrrolo[2,3-c]isoquinoline], the IC50 is reported as at most 10 nM. `Cn1cc(-c2ccc3cnc4[nH]cc(C5CCC(C(=O)N6CCNCC6)CC5)c4c3c2)cn1` (stereo not drawn) [Compound 28, (4-(8-(1-methyl-1H-pyrazol-4-yl)-3H-pyrrolo[2,3-c]isoquinolin-1-yl)cyclohexyl)(piperazin-1-yl)methanone] showed an IC50 of at most 10 nM. `Cn1cc(-c2ccc3cnc4[nH]c(=O)n(C5CC(O)C5)c4c3c2)cn1` (stereo not drawn) [Compound 21, 1-(3-hydroxycyclobutyl)-8-(1-methyl-1H-pyrazol-4-yl)-1,3-dihydro-2H-imidazo[4,5-c]isoquinolin-2-one] gave an IC50 of 10 to 100 nM. For `Cn1cc(-c2ccc3cnc4[nH]cc(C(=O)N5CCNCC5)c4c3c2)cn1` [Compound 12, (8-(1-methyl-1H-pyrazol-4-yl)-3H-pyrrolo[2,3-c]isoquinolin-1-yl)(piperazin-1-yl)methanone], the IC50 was 10 to 100 nM. `CN1CCN(C(=O)c2c[nH]c3ncc4ccc(-c5cccnc5)cc4c23)CC1` [Compound 10, (4-methylpiperazin-1-yl)(8-(pyridin-3-yl)-3H-pyrrolo[2,3-c]isoquinolin-1-yl)methanone] gave an IC50 of 100 to 1000 nM. Molecule `Cc1c(C2CCN(CC(C)(C)O)CC2)[nH]c2ncc3ccc(-c4cnn(C)c4)cc3c12` [Compound 56, 2-methyl-1-(4-(1-methyl-8-(1-methyl-1H-pyrazol-4-yl)-3H-pyrrolo[2,3-c]isoquinolin-2-yl)piperidin-1-yl)propan-2-ol] has an IC50 of at most 10 nM. Work on `Cn1cc(-c2ccc3cnc4[nH]cc(C5CCN(S(C)(=O)=O)CC5)c4c3c2)cn1` [Compound 29, 8-(1-methyl-1H-pyrazol-4-yl)-1-(1-(methylsulfonyl)piperidin-4-yl)-3H-pyrrolo[2,3-c]isoquinoline] yielded an IC50 of at most 10 nM. `Cc1c(-c2cccc(C(=O)O)c2)[nH]c2ncc3ccncc3c12` [Compound 52, 3-(9-methyl-7H-pyrrolo[2,3-c][2,6]naphthyridin-8-yl)benzoic acid] showed an IC50 of 100 to 1000 nM. `Cn1cc(-c2ccc3cnc4[nH]cc(-c5ccc(F)cc5)c4c3c2)cn1` [Compound 2, 1-(4-fluorophenyl)-8-(1-methyl-1H-pyrazol-4-yl)-3H-pyrrolo[2,3-c]isoquinoline] showed an IC50 of 10 to 100 nM. `O=C(O)[C@H]1C[C@H](c2c[nH]c3ncc4ccccc4c32)C1` [Compound 33, (1r,3r)-3-(3H-pyrrolo[2,3-c]isoquinolin-1-yl)cyclobutane-1-carboxylic acid] gave an IC50 of 100 to 1000 nM. Work on `O[C@H]1CCN(c2cncc(-c3ccc4cnc5[nH]c(C6CCC6)cc5c4c3)c2)C1` [Compound 69] yielded an IC50 of 10 to 100 nM. Molecule `Cn1cc(-c2ccc3cnc4c(c(C5CCC5)cn4C)c3c2)cn1` [Compound 38, 1-cyclobutyl-3-methyl-8-(1-methyl-1H-pyrazol-4-yl)-3H-pyrrolo[2,3-c]isoquinoline] has an IC50 of 10 to 100 nM.

Same assay, conditions: Compounds of Formula (II); DYRK1A 1 nM, ATP 20 μM, Ser/Thr 18 peptide 2 μM, 90 minutes; read-out: DYRK1 IC50
`CN1CCC(c2cc3c(-c4cc5scnc5cn4)ccnc3[nH]2)CC1` [Compound 4] showed an IC50 of 100 to 1000 nM.

Same assay, conditions: Compounds of Formula (III); DYRK1A 1 nM, ATP 20 μM, Ser/Thr 18 peptide 2 μM, 90 minutes; read-out: DYRK1 IC50
With `Cn1ncc2ccc(-c3cnc(C#CC4CCNCC4)s3)cc21` [Compound 7] the IC50 was 50 to 200 nM.

Same assay, conditions: Compounds of Formula (IV); DYRK1A 1 nM, ATP 20 μM, Ser/Thr 18 peptide 2 μM, 90 minutes; read-out: DYRK1 IC50
Molecule `CC(=O)N1CCc2c(cnc3[nH]cc(-c4cccc(Cl)c4)c23)C1` [Compound 10] has an IC50 of 1000 to 5000 nM. Molecule `CC(=O)N1CCc2c(cnc3[nH]cc(-c4cccnc4)c23)C1` [Compound 8] has an IC50 of 1000 to 5000 nM. With `O=c1[nH]c2cc3c(cc2o1)[nH]c(=O)n3-c1cccc(O)c1` [Compound 11] the IC50 was 1000 to 5000 nM. Molecule `O=c1oc2cc3cnccc3cc2n1CCc1nc2ccccc2[nH]1` [Compound 4] has an IC50 of 1000 to 5000 nM.

Target: T1, DYRK1A
Assay: not given
Conditions: cited from earlier work
For `O=C(O[C@@H]1Cc2c(O)cc(O)cc2O[C@@H]1c1cc(O)c(O)c(O)c1)c1cc(O)c(O)c(O)c1` [EGCG, Epigallocatechin gallate], the “mode of DYRK1A inhibition” value is given as “non-ATP competitive DYRK1A inhibitor”.
